According to patent US12599672B2, “KRAS proteolysis targeting chimeras” (PAQ Therapeutics Inc., priority 2023, dated 2026):

Assays:
Type in all cases: cell-based
[1] = target: T1, KRAS G12D (Homo sapiens, UniProt P01116, G12D); test: KRAS G12D HiBit assay; details: AsPc-1-KRAS (G12D)-HiBit-KI cell, compound treatment for 24 hours, absolute DC50
T1 construct: AsPc-1-KRAS (G12D)-HiBit-KI cell (Pharmaron); host or cells: AsPc-1-KRAS (G12D)-HiBit-KI cells (HiBiT knock-in at the endogenous KRAS locus)
T1 sequence (P01116 1-188 isoform P01116-2 G12D): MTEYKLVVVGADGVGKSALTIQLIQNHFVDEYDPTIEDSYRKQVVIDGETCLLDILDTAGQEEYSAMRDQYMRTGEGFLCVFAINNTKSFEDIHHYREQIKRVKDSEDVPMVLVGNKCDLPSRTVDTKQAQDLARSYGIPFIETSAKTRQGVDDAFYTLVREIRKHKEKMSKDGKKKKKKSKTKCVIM
In short: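 Cells were treated for 24 h with compounds in a 3-fold, 10-point dilution series from a 0.3 mM DMSO stock, then equilibrated 15 min at room temperature. KRAS G12D HiBiT levels were read by luminescence after lytic Nano-Glo HiBiT reagent with LgBiT; inhibition calculated relative to 0.1% DMSO high control.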

[2] = target: T2, KRAS (Homo sapiens, UniProt P01116); test: KRASamp MSD assay; details: KE39 (KRAS amplified) cells, treated with test compounds for 24 hr, MSD readout of KRAS degradation
T2 construct: endogenous in cells; host or cells: KE39 (KRAS amplified) cells
T2 sequence (P01116 1-188 isoform P01116-2): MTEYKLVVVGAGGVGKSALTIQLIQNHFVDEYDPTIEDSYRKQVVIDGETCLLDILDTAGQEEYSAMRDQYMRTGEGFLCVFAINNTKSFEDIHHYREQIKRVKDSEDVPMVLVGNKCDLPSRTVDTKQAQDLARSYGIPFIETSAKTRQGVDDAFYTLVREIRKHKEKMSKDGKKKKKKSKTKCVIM
In short: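 KRAS-amplified KE39 cells treated with compound for 24 hr, then lysed in RIPA buffer with protease/phosphatase inhibitors. KRAS protein measured by MSD sandwich immunoassay against a recombinant WT KRAS standard curve; DC50 derived from curve fitting of degradation.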

[3] = target: T3, KRAS G12V (Homo sapiens, UniProt P01116, G12V); test: KRAS G12V HiBit assay; details: SW620-KRAS (G12V)-HiBit-KI cells, compound treatment for 24 hours, class symbols
T3 construct: SW620-KRAS (G12V)-HiBit-KI cell (Pharmaron); host or cells: SW620-KRAS (G12V)-HiBit-KI cells (HiBiT knock-in at the endogenous KRAS locus)
T3 sequence (P01116 1-188 isoform P01116-2 G12V): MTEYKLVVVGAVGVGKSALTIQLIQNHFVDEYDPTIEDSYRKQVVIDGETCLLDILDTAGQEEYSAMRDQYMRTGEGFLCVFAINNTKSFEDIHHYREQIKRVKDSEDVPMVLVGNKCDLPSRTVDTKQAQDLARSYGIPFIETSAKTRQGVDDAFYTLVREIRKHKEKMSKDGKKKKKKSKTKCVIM
In short: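 HiBiT-tagged KRAS G12V cells treated 24 h with compound in a 3-fold, 10-point series (0.3 mM DMSO stock); lytic HiBiT reagent with LgBiT added after 15 min room-temperature equilibration. Degradation calculated against 0.1% DMSO high control.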

[4] = numeric bounds given in place of class symbols

Structure (SMILES)	DC50 [1, 4]	DC50 [2]	DC50 [3]	DC50 ([1]; class symbols)
C#Cc1c(F)ccc2cc(O)cc(-c3ncc4c(N5CCC[C@@](C)(O)C5)nc(OC[C@@]56CCCN5[C@H](COC(=O)NC5CN(C7CCN(c8ccc9c(c8)n(C)c(=O)n9C8CCC(=O)NC8=O)CC7)C5)CC6)nc4c3F)c12 (stereo partly drawn) [Compound 325, ((3S,7aS)-7a-(((7-(8-ethynyl-7-fluoro-3-hydroxynaphthalen-1-yl)-8-fluoro-4-((R)-3-hydroxy-3-methylpiperidin-1-yl)pyrido[4,3-d]pyrimidin-2-yl)oxy)methyl)hexahydro-1H-pyrrolizin-3-yl)methyl (1-(1-(1-(2,6-dioxopiperidin-3-yl)-3-methyl-2-oxo-2,3-dihydro-1H-benzo[d]imidazol-5-yl)piperidin-4-yl)azetidin-3-yl)carbamate]	> 100 nM	≥ 10 nM	> 100 nM	–
C#Cc1c(F)ccc2cc(O)cc(-c3ncc4c(N5CCC[C@@](C)(O)C5)nc(OC[C@@]56CCCN5[C@H](COC(=O)N5CCC57CCN(C5CCN(c8ccc9c(c8)n(C)c(=O)n9C8CCC(=O)NC8=O)CC5)CC7)CC6)nc4c3F)c12 (stereo partly drawn) [Compound 326, ((3S,7aS)-7a-(((7-(8-ethynyl-7-fluoro-3-hydroxynaphthalen-1-yl)-8-fluoro-4-((R)-3-hydroxy-3-methylpiperidin-1-yl)pyrido[4,3-d]pyrimidin-2-yl)oxy)methyl)hexahydro-1H-pyrrolizin-3-yl)methyl 7-(1-(1-(2,6-dioxopiperidin-3-yl)-3-methyl-2-oxo-2,3-dihydro-1H-benzo[d]imidazol-5-yl)piperidin-4-yl)-1,7-diazaspiro[3.5]nonane-1-carboxylate]	> 100 nM	≥ 10 nM	> 100 nM	–

The remaining lines, values ahead:

DC50 [1, 4]	DC50 [2]	DC50 [3]	DC50 ([1]; class symbols)	Structure (SMILES)
> 100 nM	≥ 10 nM	> 100 nM	–	C#Cc1c(F)ccc2cc(O)cc(-c3ncc4c(N5CCC[C@@](C)(O)C5)nc(OC[C@@]56CCCN5[C@H](COC(=O)N5CC(N7CCC(N8CCC(c9ccc%10c(c9)n(C)c(=O)n%10C9CCC(=O)NC9=O)CC8)CC7)C5)CC6)nc4c3F)c12 (stereo partly drawn) [Compound 322, ((3S,7aS)-7a-(((7-(8-ethynyl-7-fluoro-3-hydroxynaphthalen-1-yl)-8-fluoro-4-((R)-3-hydroxy-3-methylpiperidin-1-yl)pyrido[4,3-d]pyrimidin-2-yl)oxy)methyl)hexahydro-1H-pyrrolizin-3-yl)methyl 3-(4-(1-(2,6-dioxopiperidin-3-yl)-3-methyl-2-oxo-2,3-dihydro-1H-benzo[d]imidazol-5-yl)-[1,4′-bipiperidin]-1′-yl)azetidine-1-carboxylate]
–	1 to 10 nM	< 10 nM	< 100 nM	C#Cc1c(F)ccc2cc(O)cc(-c3ncc4c(N5CCC[C@@](C)(O)C5)nc(OC[C@@]56CCCN5[C@H](COC(=O)N5CCC7(CC5)CC(CN5CCC(c8ccc9c(c8)n(C)c(=O)n9C8CCC(=O)NC8=O)CC5)C7)CC6)nc4c3F)c12 (stereo partly drawn) [Compound 323, ((3S,7aS)-7a-(((7-(8-ethynyl-7-fluoro-3-hydroxynaphthalen-1-yl)-8-fluoro-4-((R)-3-hydroxy-3-methylpiperidin-1-yl)pyrido[4,3-d]pyrimidin-2-yl)oxy)methyl)hexahydro-1H-pyrrolizin-3-yl)methyl 2-((4-(1-(2,6-dioxopiperidin-3-yl)-3-methyl-2-oxo-2,3-dihydro-1H-benzo[d]imidazol-5-yl)piperidin-1-yl)methyl)-7-azaspiro[3.5]nonane-7-carboxylate]
> 100 nM	≥ 10 nM	> 100 nM	–	C#Cc1c(F)ccc2cc(O)cc(-c3ncc4c(N5CCC[C@@](C)(O)C5)nc(OC[C@@]56CCCN5[C@H](COC(=O)NC5CCN(C7CCN(c8ccc9c(c8)n(C)c(=O)n9C8CCC(=O)NC8=O)CC7)CC5)CC6)nc4c3F)c12 (stereo partly drawn) [Compound 324, ((3S,7aS)-7a-(((7-(8-ethynyl-7-fluoro-3-hydroxynaphthalen-1-yl)-8-fluoro-4-((R)-3-hydroxy-3-methylpiperidin-1-yl)pyrido[4,3-d]pyrimidin-2-yl)oxy)methyl)hexahydro-1H-pyrrolizin-3-yl)methyl (1′-(1-(2,6-dioxopiperidin-3-yl)-3-methyl-2-oxo-2,3-dihydro-1H-benzo[d]imidazol-5-yl)-[1,4′-bipiperidin]-4-yl)carbamate]
